Data taken from patent US20230220021A1, “CYCLIC PEPTIDE INHIBITORS OF PSD-95 AND USES THEREOF” (University of Copenhagen, priority 2020, published 2023).
Where two headings read alike, the source gives them in different places. Where a SMILES comes first, the peptide text is derived from it. [ ]: non-standard residue; d: D form.

Biological target: T1, PSD-95-PDZ2 (Homo sapiens, UniProt P78352)
T1 construct: 7xHis (N); made in house; host or cells: Escherichia coli B21 pLys (for the mutants, 'as previously described')
Assay: Fluorescence polarization (FP) competition assay against cyclic nNOS TAMRA probe
Assay type: binding
Settings: for Ki: cyclic nNOS TAMRA probe, mean of triplicates, N.B. = not binding; for Relative Ki (Ki mut/Ki WT): FP inhibition constant normalized to WT value

T1 sequence (P78352 160-246 limits assumed): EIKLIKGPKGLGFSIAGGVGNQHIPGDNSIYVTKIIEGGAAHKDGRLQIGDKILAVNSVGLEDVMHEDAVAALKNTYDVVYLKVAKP

| Compound | Ki (FP competition, read-out: Ki) [nM] | Relative Ki (Ki mut/Ki WT) | other results |
| --- | --- | --- | --- |
| CC[C@H](C)[C@@H]1NC(=O)[C@H]([C@@H](C)O)NC(=O)[C@H](CCCCN)NC(=O)[C@@H]2CCCN2C(=O)[C@H]([C@@H](C)O)NC(=O)CNC(=O)[C@H](CC(=O)O)NC(=O)CNC(=O)[C@H](Cc2c[nH]c3ccccc23)NC(=O)[C@H](Cc2ccccc2)NC(=O)[C@H]([C@@H](C)O)NC(=O)[C@H]([C@@H](C)O)NC(=O)[C@H](CCC(=O)O)NC(=O)[C@H](CC(C)C)NC(=O)[C@H](Cc2c[nH]cn2)NC(=O)[C@H]([C@@H](C)O)NC(=O)[C@H](CCC(N)=O)NC(=O)CNC(=O)[C@H]2CCCN2C(=O)[C@H](CCC(N)=O)NC(=O)[C@H]([C@@H](C)O)NC(=O)[C@H](C(C)C)NC(=O)[C@H](CCCNC(=N)N)NC1=O [compound 18] (cyclo(THLETTFWGDGTPKTIRVTQ[dP]GQ)) | 720 | 0.48 | – |
| CC[C@H](C)[C@@H]1NC(=O)[C@H]([C@@H](C)O)NC(=O)[C@H](CCCCN)NC(=O)[C@@H]2CCCN2C(=O)[C@H]([C@@H](C)O)NC(=O)CNC(=O)[C@H](CC(=O)O)NC(=O)CNC(=O)[C@H]([C@@H](C)O)NC(=O)[C@H](Cc2ccccc2)NC(=O)[C@H]([C@@H](C)O)NC(=O)[C@H](CO)NC(=O)[C@H](CCC(=O)O)NC(=O)[C@H](CC(C)C)NC(=O)[C@H](Cc2c[nH]cn2)NC(=O)[C@H]([C@@H](C)O)NC(=O)[C@H](CCC(N)=O)NC(=O)CNC(=O)[C@H]2CCCN2C(=O)[C@H](CCC(N)=O)NC(=O)[C@H]([C@@H](C)O)NC(=O)[C@H](C(C)C)NC(=O)[C@H](CCCNC(=N)N)NC1=O [compound 52] (cyclo(THLESTFTGDGTPKTIRVTQ[dP]GQ)) | – | 2.51 | – |
| 108 (THLETTFTGDGTPKXIRVTQPGQ; cyclized peptide; (15)..(15) X is pT; (21)..(21) is D-AA) [compound 108] | – | – | Ki (FP competition): N.B. |
| CC[C@H](C)[C@@H]1NC(=O)[C@H]([C@@H](C)O)NC(=O)[C@H](CCCCN)NC(=O)[C@@H]2CCCN2C(=O)[C@@H]2CCCN2C(=O)CNC(=O)[C@H](CC(=O)O)NC(=O)CNC(=O)[C@H]([C@@H](C)O)NC(=O)[C@H](Cc2ccccc2)NC(=O)[C@H]([C@@H](C)O)NC(=O)[C@H]([C@@H](C)O)NC(=O)[C@H](CCC(=O)O)NC(=O)[C@H](CC(C)C)NC(=O)[C@H](Cc2c[nH]cn2)NC(=O)[C@H]([C@@H](C)O)NC(=O)[C@H](CCC(N)=O)NC(=O)CNC(=O)[C@H]2CCCN2C(=O)[C@H](CCC(N)=O)NC(=O)[C@H]([C@@H](C)O)NC(=O)[C@H](C(C)C)NC(=O)[C@H](CCCNC(=N)N)NC1=O [compound 31] (cyclo(THLETTFTGDGPPKTIRVTQ[dP]GQ)) | – | 0.77 | – |
| CC[C@H](C)[C@@H]1NC(=O)[C@H]([C@@H](C)O)NC(=O)[C@H](CCCCN)NC(=O)[C@@H]2CCCN2C(=O)[C@H]([C@@H](C)O)NC(=O)CNC(=O)[C@H](CC(=O)O)NC(=O)CNC(=O)[C@H]([C@@H](C)O)NC(=O)[C@H](Cc2ccccc2)NC(=O)[C@H]([C@@H](C)O)N(C)C(=O)[C@H]([C@@H](C)O)NC(=O)[C@H](CCC(=O)O)NC(=O)[C@H](CC(C)C)NC(=O)[C@H](Cc2c[nH]cn2)NC(=O)[C@H]([C@@H](C)O)NC(=O)[C@H](CCC(N)=O)NC(=O)CNC(=O)[C@H]2CCCN2C(=O)[C@H](CCC(N)=O)NC(=O)[C@H]([C@@H](C)O)NC(=O)[C@H](C(C)C)NC(=O)[C@H](CCCNC(=N)N)NC1=O [compound 89] | 1470 | – | – |
| CC[C@H](C)[C@@H]1NC(=O)[C@H]([C@@H](C)O)NC(=O)[C@H](CCCCN)NC(=O)[C@@H]2CCCN2C(=O)[C@H]([C@@H](C)O)NC(=O)CNC(=O)[C@H](CC(=O)O)NC(=O)CNC(=O)[C@H]([C@@H](C)O)NC(=O)[C@H](Cc2ccccc2)NC(=O)[C@H]([C@@H](C)O)NC(=O)[C@H]([C@@H](C)O)NC(=O)[C@H](CCC(=O)O)NC(=O)[C@H](CC(C)C)NC(=O)[C@H](Cc2ccc(O)cc2)NC(=O)[C@H]([C@@H](C)O)NC(=O)[C@H](CCC(N)=O)NC(=O)CNC(=O)[C@H]2CCCN2C(=O)[C@H](CCC(N)=O)NC(=O)[C@H]([C@@H](C)O)NC(=O)[C@H](C(C)C)NC(=O)[C@H](CCCNC(=N)N)NC1=O [compound 26] (cyclo(TYLETTFTGDGTPKTIRVTQ[dP]GQ)) | – | 0.79 | – |
| CC[C@H](C)[C@@H]1NC(=O)[C@H]([C@@H](C)O)NC(=O)[C@H](CCCCN)NC(=O)[C@@H]2CCCN2C(=O)[C@H]([C@@H](C)O)NC(=O)CNC(=O)[C@H](CCCCN)NC(=O)CNC(=O)[C@H]([C@@H](C)O)NC(=O)[C@H](Cc2ccccc2)NC(=O)[C@H]([C@@H](C)O)NC(=O)[C@H]([C@@H](C)O)NC(=O)[C@H](CCC(=O)O)NC(=O)[C@H](CC(C)C)NC(=O)[C@H](Cc2c[nH]cn2)NC(=O)[C@H]([C@@H](C)O)NC(=O)[C@H](CCC(N)=O)NC(=O)CNC(=O)[C@H]2CCCN2C(=O)[C@H](CCC(N)=O)NC(=O)[C@H]([C@@H](C)O)NC(=O)[C@H](C(C)C)NC(=O)[C@H](CCCNC(=N)N)NC1=O [compound 28] (cyclo(THLETTFTGKGTPKTIRVTQ[dP]GQ)) | – | 1.91 | – |
| Cyclo-(THLEAlloTTFTGDGTPKTIRVTQpG(Qα)) (THLEXTFTGDGTPKTIRVTQPGQ; cyclic; allo-threonine at 109; D-proline; cyclized peptide; (5)..(5) X is AlloT; (21)..(21) is D-AA) [SEQ ID NO: 80] | – | – | effect on interaction with PSD-95-PDZ2 (in words) (FP competition): abolish the interaction |
| CC[C@H](C)[C@@H]1NC(=O)[C@H]([C@@H](C)O)NC(=O)[C@H](CCCCN)NC(=O)[C@@H]2CCCN2C(=O)[C@H]([C@@H](C)O)NC(=O)CNC(=O)[C@H](CC(=O)O)NC(=O)CNC(=O)[C@H]([C@@H](C)O)NC(=O)[C@H](Cc2ccccc2)NC(=O)[C@H]([C@@H](C)O)NC(=O)[C@H]([C@@H](C)O)NC(=O)[C@H](CCC(=O)O)NC(=O)[C@H](C)NC(=O)[C@H](Cc2c[nH]cn2)NC(=O)[C@H]([C@@H](C)O)NC(=O)[C@H](CCC(N)=O)NC(=O)CNC(=O)[C@H]2CCCN2C(=O)[C@H](CCC(N)=O)NC(=O)[C@H]([C@@H](C)O)NC(=O)[C@H](C(C)C)NC(=O)[C@H](CCCNC(=N)N)NC1=O [compound 57] (cyclo(THAETTFTGDGTPKTIRVTQ[dP]GQ)) | – | 2.36 | – |
| CC[C@H](C)[C@@H]1NC(=O)[C@H]([C@@H](C)O)NC(=O)[C@H](CCCCN)NC(=O)[C@@H]2CCCN2C(=O)[C@H](CCC(=O)O)NC(=O)[C@H](C)NC(=O)[C@H](CC(=O)O)NC(=O)CNC(=O)[C@H](Cc2c[nH]c3ccccc23)NC(=O)[C@H](Cc2ccccc2)NC(=O)[C@H]([C@@H](C)O)NC(=O)[C@H]([C@@H](C)O)NC(=O)[C@H](CCC(=O)O)NC(=O)[C@H](CC(C)C)NC(=O)[C@H](Cc2c[nH]cn2)NC(=O)[C@H]([C@@H](C)O)NC(=O)[C@H](CCC(N)=O)NC(=O)CNC(=O)[C@H]2CCCN2C(=O)[C@H](CCC(N)=O)NC(=O)[C@H]([C@@H](C)O)NC(=O)[C@H](C(C)C)NC(=O)[C@H](CCCNC(=N)N)NC1=O [compound 134] (cyclo(THLETTFWGDAEPKTIRVTQ[dP]GQ)) | 260 | – | – |
| CC[C@H](C)[C@@H]1NC(=O)[C@H]([C@@H](C)O)NC(=O)[C@H](CCCCN)NC(=O)[C@@H]2CCCN2C(=O)[C@H]([C@@H](C)O)NC(=O)CNC(=O)[C@H](CC(=O)O)NC(=O)CNC(=O)[C@H]([C@@H](C)O)NC(=O)[C@H](Cc2ccccc2)NC(=O)[C@H]([C@@H](C)O)NC(=O)[C@H]([C@@H](C)O)NC(=O)[C@H](CCC(=O)O)NC(=O)[C@H](CC(C)C)NC(=O)[C@H](Cc2c[nH]cn2)NC(=O)[C@H]([C@@H](C)O)NC(=O)[C@H](CCC(N)=O)NC(=O)CNC(=O)[C@H]2CCCN2C(=O)[C@@H](CCC(N)=O)NC(=O)[C@H]([C@@H](C)O)NC(=O)[C@H](C(C)C)NC(=O)[C@H](CCCNC(=N)N)NC1=O [compound 129] | 11100 | – | – |
